± gives the expanded uncertainty stated by the source.
Settings: Liquid; for viscosity: Capillary tube (Ostwald / Ubbelohde) method; for mass density: Vibrating tube method

CC(C)CCCC(C)CCCC(C)CCCCC(C)CCCC(C)CCCC(C)C (stereo not given) [2,6,10,15,19,23-hexamethyltetracosane]
Settings | mass density [kg/m3] | viscosity [mPa·s]
313.15 K, 5700 kPa | 798.1 ± 2.4 | 16.52 ± 0.38
313.15 K, 13500 kPa | 804.3 ± 2.4 | 19.37 ± 0.44
313.15 K, 23500 kPa | 811.4 ± 2.5 | 23.38 ± 0.53
313.15 K, 45700 kPa | 822.6 ± 2.5 | 35.26 ± 0.82
313.15 K, 68000 kPa | 832.5 ± 2.6 | 52.85 ± 1.2
338.15 K, 7900 kPa | 783.2 ± 2.4 | 7.82 ± 0.18
338.15 K, 11000 kPa | 785.2 ± 2.4 | 8.05 ± 0.21
338.15 K, 22500 kPa | 793.3 ± 2.4 | 10.19 ± 0.26
338.15 K, 45600 kPa | 807.5 ± 2.5 | 14.4 ± 0.37
338.15 K, 60500 kPa | 814.6 ± 2.5 | 18.07 ± 0.41
338.15 K, 76300 kPa | 820.5 ± 2.6 | 22.98 ± 0.71
363.15 K, 10600 kPa | 769.9 ± 2.3 | 4.5 ± 0.11
363.15 K, 21500 kPa | 777.9 ± 2.4 | 5.38 ± 0.14
363.15 K, 42500 kPa | 791.1 ± 2.4 | 7.21 ± 0.19
363.15 K, 63700 kPa | 802.4 ± 2.5 | 9.47 ± 0.25
